System: Z33 G4 (radiolabeled) (DNA, G4) AAAGTGATGGTGGTGGGGGAAGGATTTTCGAAC
Assay: EMSA, displacement of bound DHX36 protein
Settings: 100 mM KCl, 10 mM NaCl, 3.3 mM MgCl2, 10 mM EDTA; K-Res buffer pH 7.8, 37 °C, no ATP; DHX36 (4 nM) displaced from 4 nM G4; poly(dI:dC) present

`NCCOc1cc(C(=O)Nc2cc(OCCN)c3ccccc3n2)nc(C(=O)Nc2cc(OCCN)c3ccccc3n2)c1` was tested, and the IC50 was 33 nM.
